Here are results for one compound from patent EP1487791B1, “A NOVEL ANTIFUNGAL MOLECULE 2-(3,4-DIMETHYL-2,5-DIHYDRO-1H-PYRROL-2-YL)- METHYLETHYL PENTANOATE” (priority 2002, dated 2003).

Structures are written as SMILES. Values after ≈ are worked out from the molar mass of the structure shown.

Assay [1] has as its system A. fumigatus. As to the kind of experiment: Quantification of colony forming units in organs of infected mice. It is filed as in vivo, Balb/C mice.
Source text: In vivo efficacy of the compound against A. fumigatus infection was studied in the Balb/C mice of 6-8 weak of age of either sex, weighing 15-20 g each. The mice model of aspergillosis described by Dixon et al (1989), was used to study the effects of compound on in vivo infection of A. fumigatus.
The animals were housed in the micro-barrier cages on sterile bedding and fed ad libitum water and food. The mice were divided into 6 groups and each group contained 8-10 animals. The mice were infected experimentally with A. fumigatus. Three days prior to infection with conidia, mice were injected subcutaneously with 3 doses (250.0 mg/kg/day) of cortisone acetate in 400.0 µl of PBS. On the infection day, each mouse received 2x10^7 conidia by nasal instillation of a single droplet of conidial suspension. The animals of this model developed invasive aspergillosis and all the infected animals died within 4-6 days.
A. fumigatus (190/96) isolate was grown on Sabouraud dextrose agar plates at 37 °C for 4 days. The conidia were collected from the culture plates using PBS (pH 7.2) containing 0.05% Tween 80 (Sigma Chemicals) and the suspension was filtered through sterile glass wool. The conidia were pelleted by centrifugation at 2000 rpm and re-suspended in PBS, pH 7.2. The number of conidia, was counted and adjusted to 1x10^8 conidia/ml. The viability of the conidia was determined by plating the dilutions of suspensions on Sabouraud dextrose agar.
The dosing of the animals (cortisone treated and challenged) with compound in 6 different groups was initiated within 30 min after challenge with A. fumigatus conidia. Group I: The mice were treated orally with 7 doses of 25.0 mg/kg/day of the compound. Group II: The animals infected with A. fumigatus conidia were given 50.0 mg/kg/day of the compound for 7 days orally. Group III: The animals in this group were given 7 oral doses of 100.0 mg/kg/day of the compound. Group IV: In this group of animals, 7 oral doses of the compound (200.0 mg/kg/day) were given. Group V: The animals of this group were treated with 7 doses of 400.0 mg/kg/day orally over a period of 7 days. Group VI: The animals of this group acted as control and were treated orally with 7 doses of 400 µl PBS containing solvent.
(§1) The mice were kept under constant watch and those getting moribund, dying or survived up to 10 days were sacrificed. The autopsy was performed on the mice who had died to remove their organs for quantification of colony forming units (CFU). The lungs, livers and kidneys of the mice were removed aseptically, placed in sterile PBS (pH 7.2) and homogenized with teflon pestle mortar. The CFU in the animals were determined by plating 10 fold dilutions of organ homogenates on Sabouraud dextrose agar containing 0.05% triton X-100. The triton X-100 limited the colony size and thus greatly facilitated colony counting (Frosco, 1992). After an incubation for 48 h at 37 °C, colonies were counted and results were expressed as CFU per organ. The survival time and CFU indicating the fungal burden in various organs were considered
as §1, with “The survival time and CFU indicating the fungal burden in various organs were considered” left out

The subject of assay [2] is Aspergillus species. As to the kind of experiment: Spore germination inhibition assay. Type of assay: cell-based. The settings on record: percent spore germination inhibition, 10 hrs at 37° C. How it is done:
Pathogenic strains of fungi were obtained from the Mycology Department of Vallabhbhai Patel Chest Institute, Delhi. All the strains were grown on Sabouraud dextrose agar at 37°C. The conidia form these cultures were harvested and suspended in Sabouraud maltose broth. The number of conidia was counted using haemocytometer and their number in the suspension was adjusted to as per need of the experiment.
The modified spore germination inhibition assay was performed as described earlier (Sureder P. and Janaiah C., 1987, Ind. J. Expt. Biol., 25, 233-234). The fungal species were grown on Sabouraud dextrose agar plates at 37°C for 96 h. […] The conidia were counted and their number in the suspension was adjusted to 1x10^4 per ml. The standard drug Amphotericin B and test samples were initially dissolved in minimal quantity of dimethylsulfoxide (DMSO) and then diluted with Sabouraud dextrose medium. […] The number of germinated and non-germinated spores was counted. The percent spore germination inhibition (PSGI) was calculated using following formula PSGI = 100-(No.of spores germinated in drug treated well)/(No.of spores germinated in control well) [formula] […]
The spore germination inhibition assay was performed to evaluate the activity of the compound. […] The number of germinated and non-germinated spores was counted and the percent spore germination inhibition (PSGI) was calculated. […]

[3] abbreviates: Group I, 25.0 mg/kg body weight oral.
Where [4] appears, read: Group II, 50.0 mg/kg body weight oral.
[5] abbreviates: Group III, 100.0 mg/kg body weight oral.
Setting [6] is: Group IV, 200.0 mg/kg body weight oral.
Where [7] appears, read: Group V, 400.0 mg/kg body weight oral.

In general, MIC refers to the smallest concentration in the dilution series that meets the test's criterion for growth inhibition. As for `CCCCC(=O)OC(C)CC1NCC(C)=C1C` (centres unmarked) [PC-1, 2-(3,4-dimethyl-2,5-dihydro-1H-pyrrol-2-yl)-1-methylethyl pentanoate], in assay [1] (400 mg/kg body weight, p < 0.001), the “colony counts as compared to controls” value is listed as “reduced the colony counts significantly”. Besides, the “number of CFUs in the kidneys” value in assay [1] (100.0 to 400.0 mg/kg body weight) is “significant reduction”. The “CFU/Organs (Mean+ SD) Kidney” value is on record as 1402.5+350.09 CFU/Organs in assay [1] (setting [3]); 1040.5+441.78 CFU/Organs in assay [1] (setting [4]); 733.3+394.69 CFU/Organs in assay [1] (setting [5]); 683.3+352.67 CFU/Organs in assay [1] (setting [6]); 225.0+157.39 CFU/Organs in assay [1] (setting [7]). The “CFU/Organs (Mean+ SD) Liver” value is reported as 255.0+72.45 CFU/Organs in assay [1] (setting [3]); 290.6+135.58 CFU/Organs in assay [1] (setting [4]); 216.7+108.97 CFU/Organs in assay [1] (setting [5]); 225.0+91.85 CFU/Organs in assay [1] (setting [6]); 165.0+117.84 CFU/Organs in assay [1] (setting [7]). Further, the “CFU/Organs (Mean+ SD) Lung” value in assay [1] (setting [3]) is recorded as 907.5+246.09 CFU/Organs; in assay [1] (setting [4]), 900.0+230.29 CFU/Organs; in assay [1] (setting [5]), 650.1+171.85 CFU/Organs; in assay [1] (setting [6]), 525.0+251.56 CFU/Organs; in assay [1] (setting [7]), 180.0+127.75 CFU/Organs. In addition, the “effect on the CFUs in the lung tissue” value in assay [1] (doses of 25.0 and 50.0 mg/kg body weight) is listed as “did not have any effect”. Further, the “effect of the compound on CFUs in liver” value in assay [1] (liver) was “very less effect”. The compound also gave a minimal inhibitory concentration (MIC) in assay [2] of 87.5 µg/mL (≈ 366 µM).
